From ChEMBL document CHEMBL1201862, “PubChem BioAssay data set” (2004)
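A five-concentration, 48-hour dose response in 96-well plates underlies each endpoint, interpolated linearly between surrounding concentrations. At the GI50, growth is halved.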 The source made the active and inactive calls. Rule as the data show it: active = GI50 up to about 1.1 µM and inactive = higher.

How the values were obtained:
Assay in all cases: inhibition of tumour cell growth, NCI panel, 48 h
[1] = tested on: 786-0
[2] = tested on: A498
[3] = tested on: ACHN
[4] = tested on: CCRF-CEM
[5] = tested on: DMS-114
[6] = tested on: HL-60
[7] = tested on: M14
[8] = tested on: Malme-3M
[9] = tested on: OVCAR-3
[10] = tested on: OVCAR-4
[11] = tested on: OVCAR-5
[12] = tested on: OVCAR-8
[13] = tested on: RXF 393
[14] = tested on: SK-MEL-2
[15] = tested on: SK-MEL-5
[16] = tested on: SNB-75
[17] = tested on: TK-10
[18] = tested on: UACC-62
[19] = tested on: NCI/ADR-RES
[20] = tested on: PC-3

Structure (SMILES)	GI50 [1]	GI50 [2]	GI50 [3]	GI50 [4]	GI50 [5]	GI50 [6]	GI50 [7]	GI50 [8]	GI50 [9]	GI50 [10]	GI50 [11]	GI50 [12]	GI50 [13]	GI50 [14]	GI50 [15]	GI50 [16]	GI50 [17]	GI50 [18]	GI50 [19]	GI50 [20]
C[C@]12CCC3[C@@H](CC[C@@H]4c5nonc5CC[C@]34C)C1CC[C@@H]2O (stereo not given in full)	25.3 µM (inactive)	25.2 µM (inactive)	23.6 µM (inactive)	22 µM (inactive)	29.2 µM (inactive)	18.3 µM (inactive)	23.6 µM (inactive)	24.5 µM (inactive)	21.1 µM (inactive)	27.3 µM (inactive)	> 100 µM (inactive)	35.8 µM (inactive)	24.8 µM (inactive)	22.6 µM (inactive)	18.4 µM (inactive)	27.2 µM (inactive)	29.5 µM (inactive)	30.9 µM (inactive)	–	–
COc1cc(/C=C2\NC(=S)C3Cc4c(OC)c(C)c(OC)c(OC)c4C2N3C)c(OC)c(C)c1OC (stereo not given)	73.1 µM (inactive)	63.5 µM (inactive)	48.2 µM (inactive)	38.7 µM (inactive)	27.5 µM (inactive)	25.2 µM (inactive)	42.8 µM (inactive)	29 µM (inactive)	31 µM (inactive)	> 100 µM (inactive)	> 100 µM (inactive)	32.5 µM (inactive)	24.7 µM (inactive)	36.2 µM (inactive)	24.5 µM (inactive)	> 100 µM (inactive)	46 µM (inactive)	98.4 µM (inactive)	–	–
Cc1ccccc1/N=N/c1c(-c2ccccc2)nn(C(=O)CC(=O)Nc2cccc(Cl)c2)c1-c1ccccc1	18.5 µM (inactive)	19 µM (inactive)	23 µM (inactive)	15.8 µM (inactive)	14.9 µM (inactive)	17.3 µM (inactive)	22.1 µM (inactive)	37.9 µM (inactive)	18.5 µM (inactive)	22.6 µM (inactive)	16.7 µM (inactive)	21.3 µM (inactive)	19.9 µM (inactive)	12.7 µM (inactive)	15.8 µM (inactive)	28.2 µM (inactive)	0.27 µM (active)	22 µM (inactive)	–	–
COC(=O)C(CCCCCCCC(C(=O)OC)C1=Nc2nnc(N)n2C1=O)C1=Nc2nnc(N)n2C1=O (stereo not given)	> 100 µM (inactive)	> 100 µM (inactive)	> 100 µM (inactive)	> 100 µM (inactive)	> 100 µM (inactive)	> 100 µM (inactive)	> 100 µM (inactive)	> 100 µM (inactive)	> 100 µM (inactive)	> 100 µM (inactive)	> 100 µM (inactive)	94.8 µM (inactive)	55.8 µM (inactive)	> 100 µM (inactive)	> 100 µM (inactive)	48.3 µM (inactive)	> 100 µM (inactive)	> 100 µM (inactive)	–	–
COc1ccccc1/C=N/C12CC3CC(CC(C3)C1)C2	> 100 µM (inactive)	> 100 µM (inactive)	> 100 µM (inactive)	> 100 µM (inactive)	> 10 µM (inactive)	73.6 µM (inactive)	> 100 µM (inactive)	> 100 µM (inactive)	> 100 µM (inactive)	> 100 µM (inactive)	> 100 µM (inactive)	> 100 µM (inactive)	> 100 µM (inactive)	> 100 µM (inactive)	81.8 µM (inactive)	86.9 µM (inactive)	> 100 µM (inactive)	> 100 µM (inactive)	–	–
O=C(O)CCCc1ccc(N(CCCl)CCCl)cc1 [CHLORAMBUCIL]	30.9 µM (inactive)	125 µM (inactive)	14.4 µM (inactive)	6.31 µM (inactive)	45.1 µM (inactive)	8.22 µM (inactive)	62.7 µM (inactive)	70.3 µM (inactive)	111 µM (inactive)	136 µM (inactive)	97.1 µM (inactive)	83.2 µM (inactive)	33.2 µM (inactive)	155 µM (inactive)	88.5 µM (inactive)	54 µM (inactive)	171 µM (inactive)	20 µM (inactive)	56.9 µM (inactive)	99.3 µM (inactive)
